From patent publication US8318950B2, “N-acyl amino acid derivatives, a method for the preparation thereof, a pharmaceutical composition and use thereof as anti-allergic, anti-inflammatory and hypolipidemic agents” (Otkrytoe Aktsionernoe Obschestvo-Otechestvennye Lekarstva, priority 2005, dated 2012)

Assays:
[1] = tested on: guinea pig blood basophils; test: In vitro ovalbumin (OA)-induced blood basophil degranulation of immunized guinea pig; type: cell-based; settings: for inhibition at 1000 µM / inhibition at 100 µM / inhibition at 10 µM: Cavia porcellus, read-out: Complete degranulation inhibition (CDI)
Experimental: Leukocytes from guinea pig blood were isolated according to the Freemel's method [Immunologicheskiye Metody under edition of G. Frimel/Moscow., “Meditsina” publishers, 1987, p. 222 in the inventor's modification].
Guinea pigs of both sexes weighing from 600 to 800 g were used to conduct the test. The animals were once immunized with a mixture of 10 μg ovalbumin and 100 mg aluminum hydroxide per one animal according to Andersson [Anderson P. Antigen-induced bronchial anaphylaxis in actively sensitized guinea-pigs.//Allergy. 1980. Vol. 35. P. 63-71].
Under ester anesthesia, 15 ml blood were drawn from guinea pig heart. Double precipitation of cells using EDTA and a citrate-containing precipitating liquid was used to isolate basophils in the leukocyte suspension.
Blood was mixed with 5% EDTA.Na2 2H2O (“Sigma”) solution at 9:1 ratio and in 30 minutes it was subjected to mild centrifugation (for 12 minutes at 80 g). Supernatant was collected and centrifuged for 15 minutes at 500 g.
To the remaining cells, a citrate-containing precipitating liquid (3) was added at proportion 3:10 (it was thermostated at 37° C. for 30 minutes). A supernatant fraction enriched by leukocytes was centrifuged for 7 minutes at 100 g. To leukocyte precipitate, 0.85% NaCl solution was added and cellular concentration was brought to 30×10^3 μl.
Protocol of the in vitro basophil degranulation test [Spravochnil po klinicheskim laboratomym metodam issledovaniya (A reference book on clinical-laboratory examination methods)/Edited by E. A. Cost/Moscow, “Meditsina” publishers, 1975, p. 130].
For the test, a centrifuge tube (3 tubes per each sample) was filled with 300 μl cellular suspension, then salt solution of a tested compound (or a salt solution in the control of spontaneous and maximum degranulation) was added and pre-incubated at 37° C. for 15 minutes, then into each tube 300 μl 1% OA solution was added (in the control of spontaneous degranulation a salt solution in the same amount was added) and once more pre-incubated at 37° C. for 10 minutes. Functional leukocyte concentration was 10^4/μl. Samples (100 μl) were taken off from each tube into separate tubes to assess a complete basophil degranulation, and to the remained cells, a cooled salt solution was added (5 ml into each tube) to arrest degranulation reaction, then the tubes were centrifuged for 7 min at 100 g, and from precipitate, preparations for microscopy were prepared. The preparations were fixed and stained according to the method of Seder et al. [Seder R. A. et al. Mouse splenic and bone marrow cell populations that express high—affinity Fcε receptors and produce interleukin-4 are highly enriched in basophils.//Proc. Natl. Acad. USA, 1991, V. 88, P. 2835-2839].
In order to detect a specific basophil granulation, the dye 0.5% alcyanic blue (pH 1.0) was used, nuclei were additionally stained with safranin (0.1% solution in 1% acetic acid). The preparations were used to assess a total degranulation inhibition.
A total degranulation inhibition (DI) (%) was calculated according to the formula: […]
max—% of degranulated basophils at the maximum degranulation (OA)
spontaneous—% of degranulated basophils in spontaneous degranulation (control)
experimental—% of degranulated basophils following exposure to the tested compound.
Assessment of a Complete Basophil Degranulation
Samples selected following basophil degranulation test (100 μl each) were poured into tubes with the dye (0.5% alcyane blue, pH 1.0) at ratio 1:1. Staining was carried out at room temperature for not less than 50 min. Stained basophils were calculated using the Fooks-Rosenthal chamber. Inhibition of a complete basophil degranulation (ICD) was calculated according to the formula: ICD(%)=1−[(Mm(c)−Mm(exper.)]/Mm(c)−Mm(OA)]×100, wherein
M m (c)—mean (by three samples) basophil number in the spontaneous basophil degranulation test
M±m (OA)—mean (by three samples) basophil number in the maximum antigen-induced basophil degranulation test; […]

[2] = tested on: endogenous hypercholesterolemia in guinea pigs; test: Model of endogenous hypercholesterolemia in guinea pigs (fat loading); type: in vivo, guinea pig; parameters: Serum total cholesterol / Serum total triglyceride levels: unit not given here; settings: for Serum total cholesterol / Serum total triglyceride levels: fat loading + compound 500 μg/kg orally
Experimental: The study was carried out on male guinea pigs (Aguti line) weighing 304±25 g. The experiment lasted 31 days. The control group included 6 guinea pigs (intact animals). The compounds studied were administered from day 1 of the experiment (from day 1 of administering fat loading).
The animals of experimental groups received orally for 31 days a compound studied and fat loading. The compound studied at doses indicated below was administered in the form of an aqueous solution (0.5 ml per an animal); fat loading (a mixture of porcine fat and preliminary heated corn oil at 4:1 ratio by volume, at the rate of 5 ml/kg weight 0.5 h post administering the substance studied.
1) “control”—intact animals;
2) “fat”—animals that received fat loading only
3) “compound IV”—animals that received fat loading+compound IV at dose 500 μg/kg body weight;
4) “compound V”—animals that received fat loading+compound V at dose 500 μg/kg body weight.
Statistical processing was carried out using a mono-factorial analysis of variance.

[3] = tested on: antigen-induced bronchial spasm; settings: oral and intratracheal route, 50 μg/kg; cited from earlier work
[4] = tested on: animals with atherogenic loading; settings: WO 99/01103, similar biological experiment; cited from earlier work
[5] = tested on: delayed type hypersensitivity; settings: doses 50 and 500 μg/kg; cited from earlier work
[6] = tested on: passive cutaneous anaphylaxis; settings: in vivo; cited from earlier work
[7] = tested on: carrageenan-induced rat paw edema; test: Carrageenan rat paw edema; type: in vivo; settings: 1% gel applied on the paw three times; paw volume 4 hours post carrageenan
Experimental: The experiments were performed on white outbred male rats weighing 250 g. A total amount of animals per an experiment was 12.
The model of carrageenan-induced edema seconding to the method of Winter et al. was used (Winter et al. Studies of the mediators of the acute inflammatory response induced in rats in different sites by carrageenan and turpentine.//J. Phamacol. 1971. V. 104. P. 15-29). 0.1 ml 1% carrageenan solution (SERVA) was subplantarly injected into the right rat paw. The animals were placed into individual chambers. Gel (1%) comprising a substance tested was applied on the paw three times: immediately following carrageenan administration, ate 1 and 2 hours post administration. 4 hours post administration of carrageenan, paw volumes were measured using a plethysmograph (Ugo Basile) Therapeutic effect of the gel was assessed by inhibition degree of inflammatory reaction in comparison with the intact left paw of the given animal and rat paw reaction of the control (untreated) group inflammatory reaction inhibition expressed in percent, was calculated according to the formula: […]

[8] = day 31, blood serum, 500 μg/kg orally (Table 24)
[9] = day 31, blood serum, 500 μg/kg orally (Table 25)

O=C(O)CCC(=O)N[C@@H](Cc1c[nH]cn1)C(=O)O [Compound V, N^α-succinyl-L-histidine]
Number of completely degranulated basophils ([1]; 10^−3 M): 35.3 ± 7.29% | Number of completely degranulated basophils ([1]; 10^−4 M): 31.2 ± 6.8% | Number of completely degranulated basophils ([1]; 10^−5 M): 24.6 ± 10.38% | inhibition at 1000 µM ([1]; 10^−3 M): 10.6 ± 7.6% | inhibition at 100 µM ([1]; 10^−4 M): 18.9 ± 11.8% | inhibition at 10 µM ([1]; 10^−5 M): 44 ± 11.3% | Serum total cholesterol ([2]; Day 28): 52.9 ± 6.5 | Serum total triglyceride levels ([2]; Day 28): 62.3 ± 5.4 | Serum total cholesterol ([2]; Day 31): 46.3 ± 4.1 | Serum total triglyceride levels ([2]; Day 31): 56.0 ± 6.1 | lowered LDL cholesterol ([2]; by day 31 of the experiment): 38% | lowered total cholesterol level ([2]; by day 31 of the experiment): 37.8% | Cholesterol, LDL [2, 8]: 41.9 ± 2.7 mg/100 ml | Cholesterol, Total [2, 8]: 46.3 ± 4.1 mg/100 ml | Cholesterol, VLDL [2, 8]: 2.1 ± 0.4 mg/100 ml | Triglycerides, LDL [2, 9]: 23.1 ± 1.9 mg/100 ml | Triglycerides, Total [2, 9]: 56 ± 6.1 mg/100 ml | Triglycerides, VLDL [2, 9]: 22.5 ± 4.4 mg/100 ml

O=C(O)CCCC(=O)NCCc1cnc[nH]1 [Glutaryl histamine, glutaryl histamine, reference compound]
Complete degranulation inhibition (CDI) ([1]; 10^−3 M): 9.3 ± 5.5% | Number of completely degranulated basophils ([1]; 10^−3 M): 31.6 ± 6.33% | Complete degranulation inhibition (CDI) ([1]; 10^−4 M): 24.1 ± 1.1% | Number of completely degranulated basophils ([1]; 10^−4 M): 25.3 ± 3.38% | Complete degranulation inhibition (CDI) ([1]; 10^−5 M): 0% | Number of completely degranulated basophils ([1]; 10^−5 M): 29.8 ± 6.73% | Decrease in bronchial spasm value as compared to the control [3]: > 50% | lowering total cholesterol level [4]: 9% | intensity of delayed type hypersensitivity [5]: significantly lower intensity | manifestations of passive cutaneous anaphylaxis [6]: capable of lowering manifestations

C[C@]12CCC(=O)C=C1CC[C@@H]1[C@@H]2[C@@H](O)C[C@@]2(C)[C@H]1CC[C@]2(O)C(=O)CO [Hydrocortisone, reference compound]
Number of completely degranulated basophils ([1]; 10^−3 M): 10.0 ± 0.7% | Number of completely degranulated basophils ([1]; 10^−4 M): 17.3 ± 0.9% | Number of completely degranulated basophils ([1]; 10^−5 M): 20.0 ± 1.3% | inhibition at 1000 µM ([1]; 10^−3 M): 71 ± 1.6% | inhibition at 100 µM ([1]; 10^−4 M): 48 ± 0.8% | inhibition at 10 µM ([1]; 10^−5 M): 40 ± 0.6%

COC(=O)[C@H](Cc1c[nH]cn1)NC(=O)CCC(=O)O [VI, N^α-succinyl-L-histidine methyl ester]
inhibition of edema [7]: 44%

COC(=O)[C@H](Cc1c[nH]c2ccccc12)NC(=O)CCCC(=O)O [XIII, N^α-glutaryl-L-tryptophane methyl ester]
inhibition of edema [7]: 40%

O=C(O)Cc1ccccc1Nc1c(Cl)cccc1Cl [diclofenac, reference compound]
inhibition of edema [7]: 62%
